From patent publication US8592483B2, “Method for treating schizophrenia” (Sucampo AG, priority 2011, dated 2013)

Key:
[1] = test system: PCP-disrupted PPI response in rats; assay: PCP-disrupted PPI response in rats (schizophrenia model), intravenous administration; assay type: in vivo, Male Wistar rats; settings: PCP 1.5 mg/kg s.c.; for % PPI (Mean ± SEM): 0.5 mg/kg intravenous, 15 min before PPI (immediately before PCP), pre-pulse 60 dB, startle 110 dB; for effect on PCP-disrupted PPI response: intravenous administration 15 min before PPI
Protocol: Male Wistar rats (n=135) (200-300 g) were used. Animals are housed at a standard temperature (22±1° C.) and in a light-controlled environment (lights on from 7 am to 8 pm) with ad libitum access to food and water. Animals are treated with Phencyclidine (PCP) at 1.5 mg/kg, s.c., and tested in Pre-Pulse Inhibition (PPI) 15 min later. Intravenous administration of Compound A ((−)-7-[(1R,2R)-2-(4,4-difluoro-3-oxooctyl)-5-oxocyclopentyl]heptanoic acid), Compound B ((+)-isopropyl (Z)-7-[(1R,2R,3R,5S)-3,5-dihydroxy-2-(3-oxodecyl)cyclopentyl]hept-5-enoate) and corresponding vehicle was done 15 min before PPI, which means each compound or vehicle was administered immediately before PCP injection.
(§1) PPI tests were conducted in standard startle chambers (SR-LAB Startle Response system, San Diego Instruments, USA). Before the PPI testing, the animals were habituated to handling. On the day of PPI testing, the animals were placed in the chamber and allowed to habituate for a period of 300 s. After habituation period, the rats received 12 startle trials, 12 no-stimulus trials, and 12 trials of the pre-pulse/startle trials (3×12 trials). The startle trials consists of single 110 dB white noise burst lasting 20 ms. The PPI trials consist of a pre-pulse (20 ms burst of white noise with intensities of 60 dB) followed 100 ms later by a startle stimulus (110 dB, 20 ms white noise). During the no-stimulus trial, no startle noise is presented. The resulting movement of the rat in the startle chamber is measured during 100 ms after startle stimulus onset. Basal startle amplitude is determined as the mean amplitude of the 12 startle trials. % PPI is calculated according to the formula 100−100%×(PP/P110), in which PP is the mean of the 12 pre-pulse inhibition trials (i.e., for each individual pre-pulse intensity), and P110 is the basal startle amplitude. The animals are treated with PCP s.c. and then tested in PPI 15 min later.

[2] = test system: PCP-disrupted PPI response in rats; assay: PCP-disrupted PPI response in rats, oral administration; assay type: in vivo, Male Wistar rats; settings: PCP 1.5 mg/kg s.c.; for % PPI (Mean ± SEM): 0.3 mg/kg oral, 45 min before PPI (30 min before PCP), pre-pulse 63 dB, startle 110 dB; for effect on PCP-disrupted PPI response: oral administration 45 min before PPI
Protocol: Male Wistar rats (n=135) (200-300 g) were used. Animals are housed at a standard temperature (22±1° C.) and in a light-controlled environment (lights on from 7 am to 8 pm) with ad libitum access to food and water. Animals are treated with Phencyclidine (PCP) at 1.5 mg/kg, s.c., and tested in Pre-Pulse Inhibition (PPI) 15 min later. Oral administration of Compound B ((+)-isopropyl (Z)-7-[(1R,2R,3R,5S)-3,5-dihydroxy-2-(3-oxodecyl)cyclopentyl]hept-5-enoate) and Compound C ((E)-7-[(1R,2R)-2-(4,4-difluoro-3-oxooctyl)-5-oxocyclopentyl]hept-2-enoic acid) and corresponding vehicle was done 45 min before PPI, which means each compound or vehicle was administered 30 min before PCP injection.
as §1, with “63” for “60”

CCCCC(F)(F)C(=O)CC[C@H]1CCC(=O)[C@@H]1CCCCCCC(=O)O [Compound A, (−)-7-[(1R,2R)-2-(4,4-difluoro-3-oxooctyl)-5-oxocyclopentyl]heptanoic acid]
% PPI (Mean ± SEM) [1]: 34.2 ± 3.9% | effect on PCP-disrupted PPI response [1]: improved the PCP-disrupted PPI response

CCCCCCCC(=O)CC[C@@H]1[C@@H](C/C=C\CCCC(=O)OC(C)C)[C@@H](O)C[C@H]1O [Compound B, (+)-isopropyl (Z)-7-[(1R,2R,3R,5S)-3,5-dihydroxy-2-(3-oxodecyl)cyclopentyl]hept-5-enoate]
% PPI (Mean ± SEM) [2]: 24.0 ± 5.3% | effect on PCP-disrupted PPI response [2]: improved the PCP-disrupted PPI response | % PPI (Mean ± SEM) [1]: 40.5 ± 4.2% | effect on PCP-disrupted PPI response [1]: improved the PCP-disrupted PPI response

CCCCC(F)(F)C(=O)CC[C@H]1CCC(=O)[C@@H]1CCCC/C=C/C(=O)O [Compound C, (E)-7-[(1R,2R)-2-(4,4-difluoro-3-oxooctyl)-5-oxocyclopentyl]hept-2-enoic acid]
% PPI (Mean ± SEM) [2]: 24.7 ± 5.0% | effect on PCP-disrupted PPI response [2]: improved the PCP-disrupted PPI response
